This assay has as its target Gamma-aminobutyric acid type B receptor subunit 1 (UniProt Q9Z0U4).

Chain of Gamma-aminobutyric acid type B receptor subunit 1 (Q9Z0U4 whole entry): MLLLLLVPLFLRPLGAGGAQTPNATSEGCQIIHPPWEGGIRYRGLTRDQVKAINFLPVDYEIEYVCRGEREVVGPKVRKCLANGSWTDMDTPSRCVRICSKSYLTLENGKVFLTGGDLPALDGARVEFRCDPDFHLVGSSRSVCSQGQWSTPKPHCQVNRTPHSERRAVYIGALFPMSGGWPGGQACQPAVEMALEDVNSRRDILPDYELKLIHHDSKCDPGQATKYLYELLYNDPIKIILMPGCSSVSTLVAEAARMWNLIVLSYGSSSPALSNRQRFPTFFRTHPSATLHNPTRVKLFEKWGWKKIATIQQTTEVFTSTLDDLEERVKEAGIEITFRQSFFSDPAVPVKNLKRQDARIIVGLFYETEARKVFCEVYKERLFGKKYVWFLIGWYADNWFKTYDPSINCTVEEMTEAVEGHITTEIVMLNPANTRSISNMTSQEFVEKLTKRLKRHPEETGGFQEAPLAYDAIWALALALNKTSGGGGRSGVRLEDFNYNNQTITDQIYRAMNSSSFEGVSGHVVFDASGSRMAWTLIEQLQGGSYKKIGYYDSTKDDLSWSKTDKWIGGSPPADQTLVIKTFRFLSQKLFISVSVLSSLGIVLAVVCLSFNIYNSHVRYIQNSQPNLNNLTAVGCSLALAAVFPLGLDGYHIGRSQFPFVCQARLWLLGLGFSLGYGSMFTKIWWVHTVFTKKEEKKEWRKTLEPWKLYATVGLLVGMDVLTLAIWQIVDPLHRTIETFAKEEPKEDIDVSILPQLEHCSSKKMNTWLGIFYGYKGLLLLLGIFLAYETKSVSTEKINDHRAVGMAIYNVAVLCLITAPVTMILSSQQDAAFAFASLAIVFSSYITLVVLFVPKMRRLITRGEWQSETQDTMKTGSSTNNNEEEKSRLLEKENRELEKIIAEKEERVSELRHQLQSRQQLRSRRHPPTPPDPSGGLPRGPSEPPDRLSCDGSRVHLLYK

What is called Ki is a dissociation constant, usually derived from enzyme kinetics or from competition with a known ligand. A higher Ki goes with lower affinity. Regarding `NCc1cc(=O)[nH]o1`, the affinity, expressed as Ki, was 0.01 µM. As for `c1c[nH]cn1`, the figure is 0.229 µM; as for `O=C(O)[C@@H]1CCCNC1` (racemic) [Nipecotic], more than 10 µM. To `N[C@@H]1C(=O)N2C(C(=O)O)=C(CSc3cnn[nH]3)CS[C@H]12` [CAS_37539-03-0] belongs 0.051 µM; to `CC(C)(O)C1C2OC(=O)C1C1(O)CC3OC34C(=O)OC2C14C` (stereo not given) [NSC_5311359], more than 10 µM.

These data come from BindingDB's records for doi:10.1111/j.1471-4159.1979.tb04553.x (1979).
